Assay results as given in patent publication US11402367B2, “Integrated multi-electrode array and trans-endothelial electrical resistance in organ-on-a-chip microsystems” (President and Fellows of Harvard College, priority 2017, dated 2022).

Assays:
[1] = system: endothelial layer (HUVECs); experiment: TEER and capacitance measurement of the endothelial layer in the MEA-TEER Heart-on-Chip; format: cell-based, human; conditions: for effect on TEER values / endothelial barrier: TNF-α 2 μg/mL overnight, isoproterenol 50 nM, 30 minutes, FIG. 5A, 5B
Experimental: The MEA-TEER chips are surface-treated with an oxygen plasma (Atto, Diener electronic GmbH, Germany at O2, 15 standard cubic centimeters per minute (“sccm”), 100 Watts, 30 seconds) to create hydrophilic, sterile, flow systems. Both apical and basal channels 116, 117, 216, 217 are coated overnight with human fibronectin (Sigma at 100 micrograms (“μg”/mL in PBS with Mg^2+ and Ca^2+ at 4° C.). HUVECs were seeded at 2*10^6 cell per mL in the apical microchannel, and, then, left static overnight.
(§1) Cardiomyocytes are seeded at 2*10^6 cell per mL in the basal microchannel, followed by 3 hours to overnight inculcation, before connecting both channels 116, 117, 216, 217 to flow at 60 microliters (“μL”)/hr. Flow is controlled by a peristaltic pump (Ismatech) and connections re in Pharmed tubing (Cole-Parmer) having a 0.511 inner diameter. […] To challenge the endothelial barrier TNF (Sigma) is added at 2 μg/mL in the bottom microchannel 117, 217 during overnight flow. Isoproterenol (Sigma) 50 nanomolar (“nM”) is added to the endothelial microchannel for 30 minutes followed by MEA measurement.
TEER measurements are carried out by applying a 10 microamperes (“μA”) sinusoidal excitation signal in a four-electrode set-up in the frequency range 100 KHz-10 hertz (“Hz”). AC measurements are preferable for TEER measurements to avoid charging effects over the cell membranes and the electrodes. The four-electrode set-up, utilizing one opposing pair of electrodes for current excitation and another opposing pair of electrodes for voltage sensing, provides benefits of eliminating contact resistance associated with two electrode measurements.
TEER and capacitance values are derived using the equivalent circuit and model depicted in FIGS. 3A, 6A, and 6B. A resistor Rsol describes the solution conductivity, while the electric response of the endothelial layer is modeled using a resistor (RTEER) and a constant phase element (CPEt) in parallel to extract TEER of the cell-cell junctions, as well as the contribution of cell membrane capacitance and, indirectly, the overall monolayer surface area.

hamster cardiomyocytes = conditions: TNF-α at 200 nanograms/ml^3; cited from earlier work
[2] = system: human induced pluripotent stem cell-derived cardiomyocytes (hiPSC-CMs, Cor.4U); experiment: MEA measurement of cardiac field potentials in the MEA-TEER Heart-on-Chip; format: cell-based; conditions: isoproterenol 50 nM; basal beat rate 60 beats per minute; FIG. 5C
Description: HUVECs (Lonza) were expanded in EGM media (Lonza) and used at passages 2-6 in the chip experiments. Human induced pluripotent stem cell-derived cardiomyocytes hiPSC-CMs, Cor.4U, Axiogenesis) were handled according to the vendor's instructions and used a passage 1 after thawing. Briefly, cryopreserved cells were thawed on fibronectin-coated cell culture vessels in the presence of 5 […] puromycin to select for MYH6-positive cells. Three hours after thawing, the puromycin containing media was gently refreshed to wash out remaining cryopreservant (DMSO). Twenty-four hours after seeding, cell culture media was refreshed without puromycin. The following day, the cardiomyocytes were replated into the chips using 0.5% trypsin. […]
Spontaneous cardiac field potentials (“FPs”) are recorded from cardiomyocytes using Platinum and Platinum Black MEAs with the commercial Multi-Channel-System USB-MEA60-Inv-BC-System, Multi-Channel-Systems (MCS) GmbH. […] Cardiac FPs are recorded for 120 seconds for each measurement using Cardio2D software and are analyzed with Cardio2D+ (both from Multi Channel Systems). Measured parameters, including FP duration (FPD, milliseconds), peak-to-peak interval (PPI, seconds), beating rate (beats per minute), and conduction velocity (CV, centimer s_1) are exported into Microsoft Excel files for further analysis. […]

[3] = system: endothelial layer (HUVECs); format: cell-based, human; conditions: adherens junction staining; FIGS. 4A-4C, 9A-9B, 10A-10C
Experimental: Cardiomyocytes are seeded at 2*10^6 cell per mL in the basal microchannel, followed by 3 hours to overnight inculcation, before connecting both channels 116, 117, 216, 217 to flow at 60 microliters (“μL”)/hr. Flow is controlled by a peristaltic pump ([…]) and connections re in […] tubing (Cole-Parmer) having a 0.511 inner diameter. […] To challenge the endothelial barrier TNF (Sigma) is added at 2 μg/mL in the bottom microchannel 117, 217 during overnight flow. Isoproterenol (Sigma) 50 nanomolar (“nM”) is added to the endothelial microchannel for 30 minutes followed by MEA measurement. Chips are rinsed in phosphate-buffered saline and fixated in 4% paraformaldehyde (Sigma) for 15 minutes at room temperature. ICC is carried out after permeabilization in phosphate-buffered saline with 0.05-0.1% Triton X-100 (Sigma) and blocking for 30 minutes in 3-5% Bovine Serum Albumin (Jackson ImmunoResearch, West Grove, Pa.) or 10% goat serum in phosphate-buffered saline with 0.05-0.1% Triton-X 100. Primary antibodies are applied in 2% goat serum or 0.5% BSA over-night at 4° C. or at RT The following primary antibodies are used for ICC experiments: mouse anti-vascular endothelial (VE)-cadherin (Abcam, 1:100), alpha-actinin (Abcam, 1:200) Cells are washed three times in phosphate-buffered saline with 0.05-0.1% Triton-X 100, followed by staining with secondary antibody staining for 30-60 min at RT. […]

[4] = system: myocardial tissue (cardiomyocytes); experiment: Immunohistochemistry of myocardial tissue on the MEA platform (alpha-actinin); format: cell-based, human; conditions: isoproterenol treatment; FIGS. 4D-4E
Experimental: as §1
Chips are rinsed in phosphate-buffered saline and fixated in 4% paraformaldehyde (Sigma) for 15 minutes at room temperature. ICC is carried out after permeabilization in phosphate-buffered saline with 0.05-0.1% Triton X-100 (Sigma) and blocking for 30 minutes in 3-5% Bovine Serum Albumin (Jackson ImmunoResearch, West Grove, Pa.) or 10% goat serum in phosphate-buffered saline with 0.05-0.1% Triton-X 100. Primary antibodies are applied in 2% goat serum or 0.5% BSA over-night at 4° C. or at RT […]

[5] = 100 nM isoproterenol; mono-channel fluidic system; cited from earlier work

Compound | effect on TEER values / endothelial barrier [1] | capacitance after the TNF-α challenge ([1]; TNF-α 2 μg/mL, from 194±33 nF after stabilization at day 2) | effect on TEER capacitance ([1]; TNF-α addition, FIG. 5B) | TEER values after TNF-α challenge ([1]; after 24 hours TNF-α 2 μg/mL, dropping from 230±45 Ω before challenge, p<0.01) | contractility of hamster cardiomyocytes (hamster cardiomyocytes) | increase in beat rate [2] | integrity of the endothelial barrier by ICC [3] | changes of cardiomyocytes by IHC versus control [4] | change of beat rate [5]
TNF-α | TEER values decrease to the same values as ECM-coated chips without cells chip | 2968±52 nF | increasing the capacitance significantly | 15±13 Ω | reduce contractility | – | – | – | –
CC(C)NCC(O)c1ccc(O)c(O)c1 (stereo not shown) [isoproterenol] | does not affect the endothelial barrier | – | – | – | – | 60% | does not show any change in integrity of a barrier | do not show major changes | 60%
